Assay results as given in ChEMBL document CHEMBL2016493, “Design, synthesis, synergistic antimicrobial activity and cytotoxicity of 4-aryl substituted 3,4-dihydropyrimidinones of curcumin” (Bioorg Med Chem Lett, 2012).
Calls of active or inactive are those of the source. The calls are words filed in the database; no cut-off is given here.

How the values were obtained:
Escherichia coli [1] = experiment: Antibacterial activity against Escherichia coli ATCC 35218 at 40 uM/ml after 24 hrs by kirby-bauer method; assay type: functional
Aspergillus niger [2] = experiment: Antifungal activity against Aspergillus niger MTCC 1108 at 40 uM/ml after 48 hrs by paper disc diffusion method; assay type: functional
Escherichia coli [3] = experiment: Antibacterial activity against Escherichia coli ATCC 35218 at 160 uM/ml after 24 hrs by kirby-bauer method; assay type: functional; details: ATCC 35218, 24 h, read-out: IZ
Curvularia lunata [4] = experiment: Antifungal activity against Curvularia lunata MTCC 581 at 80 uM/ml after 48 hrs by paper disc diffusion method; assay type: functional; details: MTCC 581, 48 h, read-out: IZ
Curvularia lunata [5] = experiment: Antifungal activity against Curvularia lunata MTCC 581 at 20 uM/ml after 48 hrs by paper disc diffusion method; assay type: functional
[6] = test system: Burkholderia pseudomallei; experiment: Antibacterial activity against Burkholderia pseudomallei NTCC 10274 at 80 uM/ml after 24 hrs by kirby-bauer method; assay type: functional; details: NTCC 10274, 24 h, read-out: IZ
[7] = test system: Burkholderia pseudomallei; experiment: Antibacterial activity against Burkholderia pseudomallei NTCC 10274 at 160 uM/ml after 24 hrs by kirby-bauer method; assay type: functional; details: NTCC 10274, 24 h, read-out: IZ
Aspergillus flavus [8] = experiment: Antifungal activity against Aspergillus flavus MTCC 1021 at 20 uM/ml after 48 hrs by paper disc diffusion method; assay type: functional
Aspergillus flavus [9] = experiment: Antifungal activity against Aspergillus flavus MTCC 1021 at 160 uM/ml after 48 hrs by paper disc diffusion method; assay type: functional; details: MTCC 1021, 48 h, read-out: IZ
Aspergillus flavus [10] = experiment: Antifungal activity against Aspergillus flavus MTCC 1021 at 80 uM/ml after 48 hrs by paper disc diffusion method; assay type: functional; details: MTCC 1021, 48 h, read-out: IZ
Aspergillus niger [11] = experiment: Antifungal activity against Aspergillus niger MTCC 1108 at 20 uM/ml after 48 hrs by paper disc diffusion method; assay type: functional
Trichoderma viride [12] = experiment: Antifungal activity against Trichoderma viride MTCC 1107 at 40 uM/ml after 48 hrs by paper disc diffusion method; assay type: functional; details: MTCC 1107, 48 h, read-out: IZ
Staphylococcus aureus [13] = experiment: Antibacterial activity against Staphylococcus aureus ATCC 11632 at 20 uM/ml after 24 hrs by kirby-bauer method; assay type: functional; details: ATCC 11632, 24 h, read-out: IZ
Pseudomonas aeruginosa [14] = experiment: Antibacterial activity against Pseudomonas aeruginosa ATCC 15499 at 40 uM/ml after 24 hrs by kirby-bauer method; assay type: functional; details: ATCC 15499, 24 h, read-out: IZ
QG-56 = experiment: Cytotoxicity against human QG56 cells after 48 hrs by MTT assay; assay type: functional, cell-based
Trichoderma viride [15] = experiment: Antifungal activity against Trichoderma viride MTCC 1107 at 20 uM/ml after 48 hrs by paper disc diffusion method; assay type: functional
Aspergillus flavus [16] = experiment: Antifungal activity against Aspergillus flavus MTCC 1021 at 40 uM/ml after 48 hrs by paper disc diffusion method; assay type: functional
Trichoderma viride [17] = experiment: Antifungal activity against Trichoderma viride MTCC 1107 at 80 uM/ml after 48 hrs by paper disc diffusion method; assay type: functional; details: MTCC 1107, 48 h, read-out: IZ
Salmonella typhimurium [18] = experiment: Antibacterial activity against Salmonella typhimurium ATCC 23564 at 40 uM/ml after 24 hrs by kirby-bauer method; assay type: functional
Curvularia lunata [19] = experiment: Antifungal activity against Curvularia lunata MTCC 581 at 40 uM/ml after 48 hrs by paper disc diffusion method; assay type: functional; details: MTCC 581, 48 h, read-out: IZ
Aspergillus niger [20] = experiment: Antifungal activity against Aspergillus niger MTCC 1108 at 160 uM/ml after 48 hrs by paper disc diffusion method; assay type: functional; details: MTCC 1108, 48 h, read-out: IZ
Staphylococcus aureus [21] = experiment: Antibacterial activity against Staphylococcus aureus ATCC 11632 at 160 uM/ml after 24 hrs by kirby-bauer method; assay type: functional; details: ATCC 11632, 24 h, read-out: IZ
Salmonella typhimurium [22] = experiment: Antibacterial activity against Salmonella typhimurium ATCC 23564 at 20 uM/ml after 24 hrs by kirby-bauer method; assay type: functional
Salmonella typhimurium [23] = experiment: Antibacterial activity against Salmonella typhimurium ATCC 23564 at 160 uM/ml after 24 hrs by kirby-bauer method; assay type: functional, Salmonella enterica subsp. enterica serovar Typhimurium; details: Salmonella enterica, ATCC 23564, 24 h; read-out: IZ
Escherichia coli [24] = experiment: Antibacterial activity against Escherichia coli ATCC 35218 at 20 uM/ml after 24 hrs by kirby-bauer method; assay type: functional
Pseudomonas aeruginosa [25] = experiment: Antibacterial activity against Pseudomonas aeruginosa ATCC 15499 at 160 uM/ml after 24 hrs by kirby-bauer method; assay type: functional; details: ATCC 15499, 24 h, read-out: IZ
[26] = test system: Burkholderia pseudomallei; experiment: Antibacterial activity against Burkholderia pseudomallei NTCC 10274 at 20 uM/ml after 24 hrs by kirby-bauer method; assay type: functional; details: NTCC 10274, 24 h, read-out: IZ
Escherichia coli [27] = experiment: Antibacterial activity against Escherichia coli ATCC 35218 at 80 uM/ml after 24 hrs by kirby-bauer method; assay type: functional; details: ATCC 35218, 24 h, read-out: IZ
Trichoderma viride [28] = experiment: Antifungal activity against Trichoderma viride MTCC 1107 at 160 uM/ml after 48 hrs by paper disc diffusion method; assay type: functional; details: MTCC 1107, 48 h, read-out: IZ
Staphylococcus aureus [29] = experiment: Antibacterial activity against Staphylococcus aureus ATCC 11632 at 40 uM/ml after 24 hrs by kirby-bauer method; assay type: functional; details: ATCC 11632, 24 h, read-out: IZ
Salmonella typhimurium [30] = experiment: Antibacterial activity against Salmonella typhimurium ATCC 23564 at 80 uM/ml after 24 hrs by kirby-bauer method; assay type: functional, Salmonella enterica subsp. enterica serovar Typhimurium; details: Salmonella enterica, ATCC 23564, 24 h; read-out: IZ
Aspergillus niger [31] = experiment: Antifungal activity against Aspergillus niger MTCC 1108 at 80 uM/ml after 48 hrs by paper disc diffusion method; assay type: functional
[32] = test system: Burkholderia pseudomallei; experiment: Antibacterial activity against Burkholderia pseudomallei NTCC 10274 at 40 uM/ml after 24 hrs by kirby-bauer method; assay type: functional; details: NTCC 10274, 24 h, read-out: IZ
Staphylococcus aureus [33] = experiment: Antibacterial activity against Staphylococcus aureus ATCC 11632 at 80 uM/ml after 24 hrs by kirby-bauer method; assay type: functional; details: ATCC 11632, 24 h, read-out: IZ
Curvularia lunata [34] = experiment: Antifungal activity against Curvularia lunata MTCC 581 at 160 uM/ml after 48 hrs by paper disc diffusion method; assay type: functional; details: MTCC 581, 48 h, read-out: IZ
Pseudomonas aeruginosa [35] = experiment: Antibacterial activity against Pseudomonas aeruginosa ATCC 15499 at 80 uM/ml after 24 hrs by kirby-bauer method; assay type: functional; details: ATCC 15499, 24 h, read-out: IZ
Pseudomonas aeruginosa [36] = experiment: Antibacterial activity against Pseudomonas aeruginosa ATCC 15499 at 20 uM/ml after 24 hrs by kirby-bauer method; assay type: functional
[37] = Salmonella enterica subsp. enterica serovar Typhimurium
[38] = Salmonella enterica, ATCC 23564, 24 h, read-out: IZ

SMILES | inhibition zone (IZ) (Aspergillus niger [2]) | zone of inhibition at 160 µM (Escherichia coli [3]) [mm] | IC50 (HCT-116) [uM/ml] | zone of inhibition at 80 µM (Curvularia lunata [4]) [mm] | zone of inhibition at 80 µM [6] [mm] | zone of inhibition at 160 µM [7] [mm] | inhibition zone (IZ) (Aspergillus flavus [8]) | zone of inhibition at 160 µM (Aspergillus flavus [9]) [mm] | zone of inhibition at 80 µM (Aspergillus flavus [10]) [mm] | inhibition zone (IZ) (Aspergillus niger [11]) | zone of inhibition (Trichoderma viride [12]) [mm] | zone of inhibition at 20 µM (Staphylococcus aureus [13]) [mm] | zone of inhibition at 40 µM (Pseudomonas aeruginosa [14]) [mm] | IC50 (QG-56) [uM/ml] | zone of inhibition at 80 µM (Trichoderma viride [17]) [mm] | zone of inhibition at 40 µM (Curvularia lunata [19]) [mm] | zone of inhibition at 160 µM (Aspergillus niger [20]) [mm] | zone of inhibition at 160 µM (Staphylococcus aureus [21]) [mm] | zone of inhibition at 160 µM (Salmonella typhimurium [23]) [mm] | zone of inhibition at 160 µM (Pseudomonas aeruginosa [25]) [mm] | other results
COc1cc(/C=C/C(=O)C2=C(/C=C/c3ccc(O)c(OC)c3)NC(=O)NC2c2ccccc2)ccc1O (stereo not drawn) | inactive | 17 | 25 | 12 | 17 | 19 | inactive | 11 | 9 | inactive | 9 | 14 | 9 | 50 | 11 | 9 | 9 | 22 | 11 | 14 | inhibition zone (IZ) (Escherichia coli [1]): inactive; inhibition zone (IZ) (Curvularia lunata [5]): inactive; inhibition zone (IZ) (Trichoderma viride [15]): inactive; inhibition zone (IZ) (Aspergillus flavus [16]): inactive; inhibition zone (IZ) (Salmonella typhimurium [18]; [37]): inactive; inhibition zone (IZ) (Salmonella typhimurium [22]; [37]): inactive; inhibition zone (IZ) (Escherichia coli [24]): inactive; zone of inhibition at 20 µM [26]: 14 mm; IC50 (HepG2): 50 uM/ml; zone of inhibition at 80 µM (Escherichia coli [27]): 9 mm; zone of inhibition at 160 µM (Trichoderma viride [28]): 14 mm; zone of inhibition at 40 µM (Staphylococcus aureus [29]): 17 mm; zone of inhibition at 80 µM (Salmonella typhimurium [30]): 8 mm; inhibition zone (IZ) (Aspergillus niger [31]): inactive; zone of inhibition at 40 µM [32]: 16 mm; zone of inhibition at 80 µM (Staphylococcus aureus [33]): 19 mm; zone of inhibition at 160 µM (Curvularia lunata [34]): 18 mm; zone of inhibition at 80 µM (Pseudomonas aeruginosa [35]): 12 mm; inhibition zone (IZ) (Pseudomonas aeruginosa [36]): inactive
COc1cc(/C=C/C(=O)C2=C(/C=C/c3ccc(O)c(OC)c3)NC(=O)NC2c2ccc(O)cc2)ccc1O (stereo not drawn) | inactive | 22 | 12.5 | 20 | 15 | 19 | inactive | 13 | 11 | inactive | 11 | 16 | 19 | 50 | 14 | 20 | 11 | 24 | 18 | 22 | zone of inhibition at 40 µM (Escherichia coli [1]; ATCC 35218, 24 h, read-out: IZ): 14 mm; zone of inhibition at 20 µM (Curvularia lunata [5]; MTCC 581, 48 h, read-out: IZ): 18 mm; zone of inhibition at 20 µM (Trichoderma viride [15]; MTCC 1107, 48 h, read-out: IZ): 9 mm; zone of inhibition at 40 µM (Aspergillus flavus [16]; MTCC 1021, 48 h, read-out: IZ): 9 mm; zone of inhibition at 40 µM (Salmonella typhimurium [18]; [38]): 13 mm; zone of inhibition at 20 µM (Salmonella typhimurium [22]; [38]): 9 mm; zone of inhibition at 20 µM (Escherichia coli [24]; ATCC 35218, 24 h, read-out: IZ): 12 mm; zone of inhibition at 20 µM [26]: 9 mm; IC50 (HepG2): 25 uM/ml; zone of inhibition at 80 µM (Escherichia coli [27]): 18 mm; zone of inhibition at 160 µM (Trichoderma viride [28]): 16 mm; zone of inhibition at 40 µM (Staphylococcus aureus [29]): 19 mm; zone of inhibition at 80 µM (Salmonella typhimurium [30]): 16 mm; zone of inhibition at 80 µM (Aspergillus niger [31]; MTCC 1108, 48 h, read-out: IZ): 9 mm; zone of inhibition at 40 µM [32]: 11 mm; zone of inhibition at 80 µM (Staphylococcus aureus [33]): 22 mm; zone of inhibition at 160 µM (Curvularia lunata [34]): 21 mm; zone of inhibition at 80 µM (Pseudomonas aeruginosa [35]): 19 mm; zone of inhibition at 20 µM (Pseudomonas aeruginosa [36]; ATCC 15499, 24 h, read-out: IZ): 17 mm
